Results reported in patent US20170209447A1, “Use of PNP Inhibitor to Treat Relapse of Malignancy after Hematopoietic Stem Cell Transplant” (Nitor Therapeutics, priority 2014, published 2017).

Tests used:
Type in all cases: cell-based
human TLR2 = biological target: T1, human TLR2 (Homo sapiens, UniProt O60603); test: TLR ligand screening: NF-κB SEAP reporter in HEK293 cells expressing TLR2; details: one concentration: Guanosine 100 uM, NTR001 10 uM, Inosine 100 uM; HEK293; triplicate; FIG. 2
T1 construct: expressed in transfected cells; host or cells: HEK293
Protocol: (§1) Toll-Like Receptor (TLR) Ligand Screening: In-vitro Activity of the PNPi, Guanosine and Inosine on Seven Different Human TLRs (TLR2, 3, 4, 5, 7, 8 and 9) as a Potential Agonist.
(§2) Method: TLR stimulation is tested by assessing NF-KB activation in HEK293 cells expressing a given TLR. The Secreted Embryonic Alkaline Phosphatase (SEAP) reporter is under the control of a promoter inducible by the transcription factor NF-κB.
(§3) This reporter gene allows the monitoring of signaling through the TLR, based on the activation of NF-κB. The compounds are evaluated at one concentration and compared to control ligands. This step is performed in triplicate.

human TLR3 = biological target: T2, human TLR3 (Homo sapiens, UniProt O15455); test: TLR ligand screening: NF-κB SEAP reporter in HEK293 cells expressing TLR3; details: one concentration: NTR001 10 uM, Inosine 100 uM, triplicate, FIG. 2
T2 construct: expressed in transfected cells; host or cells: HEK293
T2 sequence (O15455 24-904): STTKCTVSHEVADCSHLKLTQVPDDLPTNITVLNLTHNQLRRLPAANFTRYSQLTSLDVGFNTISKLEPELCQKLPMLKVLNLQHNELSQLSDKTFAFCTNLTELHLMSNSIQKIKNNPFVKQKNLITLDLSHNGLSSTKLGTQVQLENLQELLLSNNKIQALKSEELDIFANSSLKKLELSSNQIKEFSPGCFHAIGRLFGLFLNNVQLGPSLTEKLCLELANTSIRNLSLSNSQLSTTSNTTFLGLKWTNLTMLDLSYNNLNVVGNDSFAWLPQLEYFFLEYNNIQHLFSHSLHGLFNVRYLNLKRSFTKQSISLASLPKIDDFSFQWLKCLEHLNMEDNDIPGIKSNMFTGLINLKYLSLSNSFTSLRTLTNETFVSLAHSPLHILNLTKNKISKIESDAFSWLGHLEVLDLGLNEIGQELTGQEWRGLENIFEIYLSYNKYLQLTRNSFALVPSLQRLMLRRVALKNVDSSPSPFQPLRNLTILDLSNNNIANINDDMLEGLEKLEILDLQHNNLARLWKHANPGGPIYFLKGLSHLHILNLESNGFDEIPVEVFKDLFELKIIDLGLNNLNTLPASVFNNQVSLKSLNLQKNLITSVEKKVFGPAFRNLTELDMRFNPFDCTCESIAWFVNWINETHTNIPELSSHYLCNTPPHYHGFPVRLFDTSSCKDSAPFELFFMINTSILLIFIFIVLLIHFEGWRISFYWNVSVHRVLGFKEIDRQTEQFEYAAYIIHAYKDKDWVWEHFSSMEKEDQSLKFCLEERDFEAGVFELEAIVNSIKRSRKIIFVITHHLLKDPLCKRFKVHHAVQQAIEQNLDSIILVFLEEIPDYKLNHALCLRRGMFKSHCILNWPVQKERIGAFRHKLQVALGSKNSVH
Protocol: as §1, §2, §3

human TLR4 = biological target: T3, human TLR4 (Homo sapiens, UniProt O00206); test: TLR ligand screening: NF-κB SEAP reporter in HEK293 cells expressing TLR4; details: one concentration: Guanosine 100 uM, NTR001 10 uM, Inosine 100 uM; HEK293; triplicate; FIG. 2
T3 construct: expressed in transfected cells; host or cells: HEK293
Protocol: as §1, §2, §3

human TLR5 = biological target: T4, human TLR5 (Homo sapiens, UniProt O60602); test: TLR ligand screening: NF-κB SEAP reporter in HEK293 cells expressing TLR5; details: one concentration: NTR001 10 uM, Inosine 100 uM, triplicate, FIG. 2
T4 construct: expressed in transfected cells; host or cells: HEK293
Protocol: as §1, §2, §3

human TLR9 = biological target: T5, human TLR9 (Homo sapiens, UniProt Q9NR96); test: TLR ligand screening: NF-κB SEAP reporter in HEK293 cells expressing TLR9; details: one concentration: NTR001 10 uM, Inosine 100 uM, triplicate, FIG. 2
T5 construct: expressed in transfected cells; host or cells: HEK293
T5 sequence (Q9NR96 26-1032): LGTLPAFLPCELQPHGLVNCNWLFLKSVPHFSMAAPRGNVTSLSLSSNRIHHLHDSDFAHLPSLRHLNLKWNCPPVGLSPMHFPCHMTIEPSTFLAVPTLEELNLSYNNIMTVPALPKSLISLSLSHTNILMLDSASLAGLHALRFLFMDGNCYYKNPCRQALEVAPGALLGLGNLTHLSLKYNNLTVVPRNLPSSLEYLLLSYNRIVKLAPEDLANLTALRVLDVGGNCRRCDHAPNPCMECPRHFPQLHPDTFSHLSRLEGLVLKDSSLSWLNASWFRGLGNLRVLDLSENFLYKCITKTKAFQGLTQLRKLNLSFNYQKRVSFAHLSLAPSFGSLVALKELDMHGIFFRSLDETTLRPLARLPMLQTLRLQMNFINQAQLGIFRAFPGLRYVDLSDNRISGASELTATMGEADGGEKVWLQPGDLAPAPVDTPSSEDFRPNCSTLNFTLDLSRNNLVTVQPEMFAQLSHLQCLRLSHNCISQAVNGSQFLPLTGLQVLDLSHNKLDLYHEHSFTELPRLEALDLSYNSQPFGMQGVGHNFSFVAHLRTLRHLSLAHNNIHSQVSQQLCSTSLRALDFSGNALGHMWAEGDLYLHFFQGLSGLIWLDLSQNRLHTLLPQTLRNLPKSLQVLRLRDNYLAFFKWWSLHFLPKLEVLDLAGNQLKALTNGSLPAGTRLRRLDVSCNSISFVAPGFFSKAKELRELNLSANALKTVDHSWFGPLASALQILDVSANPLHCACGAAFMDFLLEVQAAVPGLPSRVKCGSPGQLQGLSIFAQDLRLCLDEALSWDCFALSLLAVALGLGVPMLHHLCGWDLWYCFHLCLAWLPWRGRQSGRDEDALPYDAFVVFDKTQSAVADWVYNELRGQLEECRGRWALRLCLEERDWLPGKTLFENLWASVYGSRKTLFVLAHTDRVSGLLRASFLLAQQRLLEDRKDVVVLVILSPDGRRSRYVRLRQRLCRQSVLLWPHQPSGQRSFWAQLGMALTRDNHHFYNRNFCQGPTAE
Protocol: as §1, §2, §3

T3 sequence (O00206 24-839): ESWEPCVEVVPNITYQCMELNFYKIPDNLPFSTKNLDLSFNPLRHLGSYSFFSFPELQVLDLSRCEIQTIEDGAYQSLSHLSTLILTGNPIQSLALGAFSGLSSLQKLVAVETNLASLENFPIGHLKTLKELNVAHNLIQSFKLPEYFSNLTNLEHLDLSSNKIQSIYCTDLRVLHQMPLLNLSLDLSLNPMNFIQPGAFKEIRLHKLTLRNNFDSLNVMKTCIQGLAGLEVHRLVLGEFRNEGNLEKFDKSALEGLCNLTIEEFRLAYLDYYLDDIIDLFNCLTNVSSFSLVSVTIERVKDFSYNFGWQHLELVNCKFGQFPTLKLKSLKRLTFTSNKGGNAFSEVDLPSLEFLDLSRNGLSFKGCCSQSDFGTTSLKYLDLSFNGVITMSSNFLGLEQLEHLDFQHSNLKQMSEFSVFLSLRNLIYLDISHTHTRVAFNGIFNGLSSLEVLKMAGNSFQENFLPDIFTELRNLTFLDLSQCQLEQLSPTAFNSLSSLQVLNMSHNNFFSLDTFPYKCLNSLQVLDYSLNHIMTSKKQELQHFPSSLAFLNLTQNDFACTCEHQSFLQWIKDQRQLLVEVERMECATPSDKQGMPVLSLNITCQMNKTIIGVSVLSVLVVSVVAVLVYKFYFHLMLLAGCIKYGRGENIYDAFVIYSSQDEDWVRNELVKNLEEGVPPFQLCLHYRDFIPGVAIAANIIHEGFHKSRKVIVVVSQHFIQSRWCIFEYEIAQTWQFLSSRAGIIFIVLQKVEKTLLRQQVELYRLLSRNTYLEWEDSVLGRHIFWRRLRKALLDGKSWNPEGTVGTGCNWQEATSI
T3 sequence (Q9Y6Y9 17-160 partner limits assumed): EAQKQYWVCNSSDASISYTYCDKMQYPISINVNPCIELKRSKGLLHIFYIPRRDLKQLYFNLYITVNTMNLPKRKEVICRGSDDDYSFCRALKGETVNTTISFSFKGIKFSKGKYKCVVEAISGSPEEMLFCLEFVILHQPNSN
T1 sequence (O60603 21-784): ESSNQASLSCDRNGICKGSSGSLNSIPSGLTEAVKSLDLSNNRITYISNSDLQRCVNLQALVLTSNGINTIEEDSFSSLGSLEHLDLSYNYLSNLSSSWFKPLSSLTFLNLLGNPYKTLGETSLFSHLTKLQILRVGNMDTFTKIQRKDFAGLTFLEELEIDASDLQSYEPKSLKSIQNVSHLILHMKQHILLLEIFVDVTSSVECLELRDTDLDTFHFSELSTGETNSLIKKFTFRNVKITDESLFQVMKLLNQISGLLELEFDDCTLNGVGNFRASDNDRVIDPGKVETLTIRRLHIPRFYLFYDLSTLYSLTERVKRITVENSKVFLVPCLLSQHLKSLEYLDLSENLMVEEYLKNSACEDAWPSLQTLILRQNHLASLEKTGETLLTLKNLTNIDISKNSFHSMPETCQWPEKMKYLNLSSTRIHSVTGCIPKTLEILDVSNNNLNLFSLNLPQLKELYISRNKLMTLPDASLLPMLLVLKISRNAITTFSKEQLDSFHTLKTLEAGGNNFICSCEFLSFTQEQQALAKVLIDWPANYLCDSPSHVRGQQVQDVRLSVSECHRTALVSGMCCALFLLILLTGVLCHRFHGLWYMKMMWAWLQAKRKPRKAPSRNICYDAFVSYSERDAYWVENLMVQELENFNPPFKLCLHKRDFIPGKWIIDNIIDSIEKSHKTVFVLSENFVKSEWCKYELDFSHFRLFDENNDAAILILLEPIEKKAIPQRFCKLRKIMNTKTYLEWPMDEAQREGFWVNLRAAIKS
T4 sequence (O60602 21-858): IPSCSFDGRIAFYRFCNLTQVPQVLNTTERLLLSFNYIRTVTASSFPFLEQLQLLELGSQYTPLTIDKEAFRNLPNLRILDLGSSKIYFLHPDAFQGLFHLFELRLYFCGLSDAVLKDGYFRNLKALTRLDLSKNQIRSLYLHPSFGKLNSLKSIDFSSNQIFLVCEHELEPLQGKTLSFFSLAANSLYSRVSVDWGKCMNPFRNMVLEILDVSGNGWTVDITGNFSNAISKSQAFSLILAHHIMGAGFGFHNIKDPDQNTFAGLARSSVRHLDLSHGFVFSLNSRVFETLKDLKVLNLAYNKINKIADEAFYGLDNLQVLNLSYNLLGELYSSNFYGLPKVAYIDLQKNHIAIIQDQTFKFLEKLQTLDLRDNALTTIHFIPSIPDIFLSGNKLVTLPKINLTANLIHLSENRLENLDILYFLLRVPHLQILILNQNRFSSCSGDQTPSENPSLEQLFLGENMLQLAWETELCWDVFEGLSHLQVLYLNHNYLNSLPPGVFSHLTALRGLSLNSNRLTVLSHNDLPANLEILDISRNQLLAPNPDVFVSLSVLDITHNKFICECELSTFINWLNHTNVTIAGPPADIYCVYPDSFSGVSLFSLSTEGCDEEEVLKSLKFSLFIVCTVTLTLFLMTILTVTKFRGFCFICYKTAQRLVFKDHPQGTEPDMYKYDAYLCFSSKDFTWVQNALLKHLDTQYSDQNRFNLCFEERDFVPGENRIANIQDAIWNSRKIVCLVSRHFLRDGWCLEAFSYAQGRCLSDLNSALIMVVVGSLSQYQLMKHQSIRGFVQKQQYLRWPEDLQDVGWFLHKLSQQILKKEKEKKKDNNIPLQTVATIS

OC[C@H]1O[C@@H](n2cnc3c(O)ncnc32)[C@H](O)[C@@H]1O [Inosine, inosine]
do not exhibit a stimulatory effect: stimulatory effect on human TLR2 (NF-κB activation) (human TLR2) | stimulatory effect on human TLR3 (NF-κB activation) (human TLR3) | stimulatory effect on human TLR4 (NF-κB activation) (human TLR4) | stimulatory effect on human TLR5 (NF-κB activation) (human TLR5) | stimulatory effect on human TLR9 (NF-κB activation) (human TLR9)

O=c1[nH]cnc2c([C@@H]3N[C@H](CO)[C@@H](O)[C@H]3O)c[nH]c12 [NTR001, 7-[(2S,3S,4R,5R)-3,4-dihydroxy-5-(hydroxymethyl)-2-pyrrolidinyl]-1,5-dihyro-4-H-pyrrolo-[3,2-d]pyrimidin-4-one]
do not exhibit a stimulatory effect: stimulatory effect on human TLR2 (NF-κB activation) (human TLR2) | stimulatory effect on human TLR3 (NF-κB activation) (human TLR3) | stimulatory effect on human TLR4 (NF-κB activation) (human TLR4) | stimulatory effect on human TLR5 (NF-κB activation) (human TLR5) | stimulatory effect on human TLR9 (NF-κB activation) (human TLR9)
